{"source": "patent US20200038416A1", "about": "“METHODS OF TREATING CARDIAC CONDUCTION DEFECTS USING AMINOSTEROL COMPOSITIONS” (Enterin, Inc., priority 2018, published 2020)", "key": {"[1]": {"tested_on": "patients with PD and constipation", "experiment": "Phase 2 trial safety and adverse event profile (Stages 1 and 2)", "format": "in vivo, human", "procedure": "Tolerability limits included diarrhea or vomiting.\nIn Stage 2, 34 patients were evaluated."}, "patients with PD": {"tested_on": "patients with PD", "experiment": "Circadian rhythm of wrist skin temperature", "format": "in vivo, human", "details": "12 evaluable patients; for markers of circadian function (IS, RA, CFI, IV) of wrist skin temperature: fixed dose versus baseline", "procedure": "(6) I-Button Temperature Assessment. The I-Button is a small, rugged self-sufficient system that measures temperature and records the results in a protected memory section. The Thermochron I-Button DS1921H (Maxim Integrated, Dallas, Tex.) was used for skin temperature measurement. I-Buttons were programmed to sample every 10 mins., and attached to a double-sided cotton sport wrist band using Velcro, with the sensor face of the I-Button placed over the inside of the wrist, on the radial artery of the dominant hand. Subjects removed and replaced the data logger when necessary (i.e., to have a bath or shower). The value of skin temperature assessment in sleep research is that the endogenous skin warming resulting from increased skin blood flow is functionally linked to sleep propensity. From the collected data, the mesor, amplitude, acrophase (time of peak temperature), Rayleight test (an index of interdaily stability), mean waveforms are calculated.);\nAssessments were made at baseline and at the end of the fixed dose and washout periods. Circadian system status was evaluated by continuously monitoring wrist skin temperature (Thermochron iButton DS1921H; Maxim, Dallas) following published procedures (Sarabia et al. 2008).\nCircadian rhythm of skin temperature was evaluable in 12 patients (i.e., those who had recordings that extended from baseline through washout). Circadian system functionality was evaluated by continuously monitoring wrist skin temperature using a temperature sensor (Thermochron iButton DS1921H; Maxim, Dallas, Tex.) (Sarabia et al. 2008). […]\nBriefly, this analysis includes the following parameters: (i) the inter-daily stability (the constancy of 24-hour rhythmic pattern over days, IS); (ii) intra-daily variability (rhythm fragmentation, IV); (iii) average of 10-minute intervals for the 10 hours with the minimum temperature (L10); (iv) average of 10-minute intervals for the 5 hours with the maximum temperature (M5) and the relative amplitude (RA), which was determined by the difference between M5 and L10, divided by the sum of both. […]"}, "αS": {"biological_target": "αS (Homo sapiens, UniProt P37840)", "details": "in vitro; cited from earlier work"}, "[2]": {"details": "Stage 1, 10 dosed, unrelated to ENT-01"}}, "note": "Entries after “also recorded” stand apart in the source; their conditions may differ."}
{"molecule": "CC(C)[C@@H](CC[C@@H](C)[C@H]1CC[C@H]2[C@@H]3[C@H](O)C[C@H]4C[C@@H](NCCCNCCCCN)CC[C@]4(C)[C@H]3CC[C@]12C)OS(=O)(=O)O", "note": "(single isomer, unassigned) [squalamine (ENT-01), squalamine]", "values": [{"measurement": "share of AEs confined to the GI tract", "setting": "[1]; Stage 1", "result": 88, "unit": "%"}, {"measurement": "patients with diarrhea", "setting": "[1]; Stage 1, 4/10", "result": 40, "unit": "%"}, {"measurement": "patients with nausea", "setting": "[1]; Stage 1, 4/10", "result": 40, "unit": "%"}, {"measurement": "Abdominal pain, Mild: patients with adverse event", "setting": "[1]; Stage 1, 10 dosed", "result": "2 (20) n, %"}, {"measurement": "Abdominal pain, Moderate: patients with adverse event", "setting": "[1]; Stage 1, 10 dosed", "result": "3 (30) n, %"}, {"measurement": "Blood in urine, Moderate: patients with adverse event", "setting": "[1]; Stage 1, 10 dosed", "result": "0 n, %"}, {"measurement": "Diarrhea, Mild: patients with adverse event", "setting": "[1]; Stage 1, 10 dosed", "result": "1 (10) n, %"}, {"measurement": "Diarrhea, Moderate: patients with adverse event", "setting": "[1]; Stage 1, 10 dosed", "result": "3 (30) n, %"}, {"measurement": "Diarrhea, Severe: patients with adverse event", "setting": "[1]; Stage 1, 10 dosed", "result": "0 n, %"}, {"measurement": "Difficulty falling asleep, Mild: patients with adverse event", "setting": "[1]; Stage 1, 10 dosed", "result": "0 n, %"}, {"measurement": "Difficulty falling asleep, Moderate: patients with adverse event", "setting": "[1]; Stage 1, 10 dosed", "result": "0 n, %"}, {"measurement": "Dizziness, Mild: patients with adverse event", "setting": "[1]; Stage 1, 10 dosed", "result": "0 n, %"}, {"measurement": "Dizziness, Moderate: patients with adverse event", "setting": "[1]; Stage 1, 10 dosed", "result": "0 n, %"}, {"measurement": "Eye infection, Mild: patients with adverse event", "setting": "[1]; Stage 1, 10 dosed", "result": "0 n, %"}, {"measurement": "Eye infection, Moderate: patients with adverse event", "setting": "[1]; Stage 1, 10 dosed", "result": "0 n, %"}, {"measurement": "Flatulence, Mild: patients with adverse event", "setting": "[1]; Stage 1, 10 dosed", "result": "2 (20) n, %"}, {"measurement": "Flatulence, Moderate: patients with adverse event", "setting": "[1]; Stage 1, 10 dosed", "result": "0 n, %"}, {"measurement": "Headache, Mild: patients with adverse event", "setting": "[1]; Stage 1, 10 dosed", "result": "1 (10) n, %"}, {"measurement": "Headache, Moderate: patients with adverse event", "setting": "[1]; Stage 1, 10 dosed", "result": "0 n, %"}, {"measurement": "Increased urinary frequency, Mild: patients with adverse event", "setting": "[1]; Stage 1, 10 dosed", "result": "0 n, %"}, {"measurement": "Increased urinary frequency, Moderate: patients with adverse event", "setting": "[1]; Stage 1, 10 dosed", "result": "0 n, %"}, {"measurement": "Loss of appetite, Moderate: patients with adverse event", "setting": "[1]; Stage 1, 10 dosed", "result": "0 n, %"}, {"measurement": "Lower GI bleed, Severe: patients with adverse event", "setting": "[1]; Stage 1, 10 dosed", "result": "0 n, %"}, {"measurement": "Nausea, Mild: patients with adverse event", "setting": "[1]; Stage 1, 10 dosed", "result": "4 (40) n, %"}, {"measurement": "Nausea, Moderate: patients with adverse event", "setting": "[1]; Stage 1, 10 dosed", "result": "0 n, %"}, {"measurement": "Skin lesions-rash, Mild: patients with adverse event", "setting": "[1]; Stage 1, 10 dosed", "result": "0 n, %"}, {"measurement": "Skin lesions-rash, Moderate: patients with adverse event", "setting": "[1]; Stage 1, 10 dosed", "result": "0 n, %"}, {"measurement": "Urinary retention, Mild: patients with adverse event", "setting": "[1]; Stage 1, 10 dosed", "result": "0 n, %"}, {"measurement": "Urinary retention, Moderate: patients with adverse event", "setting": "[1]; Stage 1, 10 dosed", "result": "0 n, %"}, {"measurement": "Urinary tract infection, Mild: patients with adverse event", "setting": "[1]; Stage 1, 10 dosed", "result": "0 n, %"}, {"measurement": "Urinary tract infection, Moderate: patients with adverse event", "setting": "[1]; Stage 1, 10 dosed", "result": "0 n, %"}, {"measurement": "Vomiting, Mild: patients with adverse event", "setting": "[1]; Stage 1, 10 dosed", "result": "1 (10) n, %"}, {"measurement": "Vomiting, Moderate: patients with adverse event", "setting": "[1]; Stage 1, 10 dosed", "result": "0 n, %"}, {"measurement": "Worsening acid reflux, Mild: patients with adverse event", "setting": "[1]; Stage 1, 10 dosed", "result": "0 n, %"}, {"measurement": "Worsening acid reflux, Moderate: patients with adverse event", "setting": "[1]; Stage 1, 10 dosed", "result": "0 n, %"}, {"measurement": "Worsening hemorrhoid, Mild: patients with adverse event", "setting": "[1]; Stage 1, 10 dosed", "result": "0 n, %"}, {"measurement": "Worsening hemorrhoid, Moderate: patients with adverse event", "setting": "[1]; Stage 1, 10 dosed", "result": "0 n, %"}, {"measurement": "Blood in urine, Mild: patients with adverse event", "setting": "[1]; [2]", "result": "1 (10) n, %"}, {"measurement": "Loss of appetite, Mild: patients with adverse event", "setting": "[1]; [2]", "result": "1 (10) n, %"}, {"measurement": "share of AEs confined to the GI tract", "setting": "[1]; Stage 2", "result": 63, "unit": "%"}, {"measurement": "Abdominal pain, Mild: patients with adverse event", "setting": "[1]; Stage 2, 34 dosed", "result": 4, "unit": "n"}, {"measurement": "Abdominal pain, Moderate: patients with adverse event", "setting": "[1]; Stage 2, 34 dosed", "result": 2, "unit": "n"}, {"measurement": "Blood in urine, Mild: patients with adverse event", "setting": "[1]; Stage 2, 34 dosed", "result": 0, "unit": "n"}, {"measurement": "Blood in urine, Moderate: patients with adverse event", "setting": "[1]; Stage 2, 34 dosed", "result": 0, "unit": "n"}, {"measurement": "Diarrhea, Mild: patients with adverse event", "setting": "[1]; Stage 2, 34 dosed", "result": 12, "unit": "n"}, {"measurement": "Diarrhea, Moderate: patients with adverse event", "setting": "[1]; Stage 2, 34 dosed", "result": 2, "unit": "n"}, {"measurement": "Diarrhea, Severe: patients with adverse event", "setting": "[1]; Stage 2, 34 dosed", "result": 1, "unit": "n"}, {"measurement": "Difficulty falling asleep, Mild: patients with adverse event", "setting": "[1]; Stage 2, 34 dosed", "result": 1, "unit": "n"}, {"measurement": "Difficulty falling asleep, Moderate: patients with adverse event", "setting": "[1]; Stage 2, 34 dosed", "result": 0, "unit": "n"}, {"measurement": "Dizziness, Mild: patients with adverse event", "setting": "[1]; Stage 2, 34 dosed", "result": 7, "unit": "n"}, {"measurement": "Dizziness, Moderate: patients with adverse event", "setting": "[1]; Stage 2, 34 dosed", "result": 1, "unit": "n"}, {"measurement": "Eye infection, Mild: patients with adverse event", "setting": "[1]; Stage 2, 34 dosed", "result": 1, "unit": "n"}, {"measurement": "Eye infection, Moderate: patients with adverse event", "setting": "[1]; Stage 2, 34 dosed", "result": 0, "unit": "n"}, {"measurement": "Flatulence, Mild: patients with adverse event", "setting": "[1]; Stage 2, 34 dosed", "result": 1, "unit": "n"}, {"measurement": "Flatulence, Moderate: patients with adverse event", "setting": "[1]; Stage 2, 34 dosed", "result": 0, "unit": "n"}, {"measurement": "Headache, Mild: patients with adverse event", "setting": "[1]; Stage 2, 34 dosed", "result": 3, "unit": "n"}, {"measurement": "Headache, Moderate: patients with adverse event", "setting": "[1]; Stage 2, 34 dosed", "result": 0, "unit": "n"}, {"measurement": "Increased urinary frequency, Mild: patients with adverse event", "setting": "[1]; Stage 2, 34 dosed", "result": 2, "unit": "n"}, {"measurement": "Increased urinary frequency, Moderate: patients with adverse event", "setting": "[1]; Stage 2, 34 dosed", "result": 0, "unit": "n"}, {"measurement": "Loss of appetite, Mild: patients with adverse event", "setting": "[1]; Stage 2, 34 dosed", "result": 0, "unit": "n"}, {"measurement": "Loss of appetite, Moderate: patients with adverse event", "setting": "[1]; Stage 2, 34 dosed", "result": 0, "unit": "n"}, {"measurement": "Nausea, Mild: patients with adverse event", "setting": "[1]; Stage 2, 34 dosed", "result": 18, "unit": "n"}, {"measurement": "Nausea, Moderate: patients with adverse event", "setting": "[1]; Stage 2, 34 dosed", "result": 1, "unit": "n"}, {"measurement": "Skin lesions-rash, Mild: patients with adverse event", "setting": "[1]; Stage 2, 34 dosed", "result": 3, "unit": "n"}, {"measurement": "Skin lesions-rash, Moderate: patients with adverse event", "setting": "[1]; Stage 2, 34 dosed", "result": 0, "unit": "n"}, {"measurement": "Urinary retention, Mild: patients with adverse event", "setting": "[1]; Stage 2, 34 dosed", "result": 1, "unit": "n"}, {"measurement": "Urinary retention, Moderate: patients with adverse event", "setting": "[1]; Stage 2, 34 dosed", "result": 0, "unit": "n"}, {"measurement": "Urinary tract infection, Mild: patients with adverse event", "setting": "[1]; Stage 2, 34 dosed", "result": 1, "unit": "n"}, {"measurement": "Urinary tract infection, Moderate: patients with adverse event", "setting": "[1]; Stage 2, 34 dosed", "result": 2, "unit": "n"}, {"measurement": "Vomiting, Mild: patients with adverse event", "setting": "[1]; Stage 2, 34 dosed", "result": 2, "unit": "n"}, {"measurement": "Vomiting, Moderate: patients with adverse event", "setting": "[1]; Stage 2, 34 dosed", "result": 0, "unit": "n"}, {"measurement": "Worsening acid reflux, Mild: patients with adverse event", "setting": "[1]; Stage 2, 34 dosed", "result": 4, "unit": "n"}, {"measurement": "Worsening acid reflux, Moderate: patients with adverse event", "setting": "[1]; Stage 2, 34 dosed", "result": 0, "unit": "n"}, {"measurement": "Worsening hemorrhoid, Mild: patients with adverse event", "setting": "[1]; Stage 2, 34 dosed", "result": 1, "unit": "n"}, {"measurement": "Worsening hemorrhoid, Moderate: patients with adverse event", "setting": "[1]; Stage 2, 34 dosed", "result": 0, "unit": "n"}, {"measurement": "Lower GI bleed, Severe: patients with adverse event", "setting": "[1]; Stage 2, colonic diverticulosis, polyp, patient on aspirin, Plavix and naproxen, unrelated to ENT-01", "result": 1, "unit": "n"}, {"measurement": "markers of circadian function (IS, RA, CFI, IV) of wrist skin temperature", "setting": "patients with PD", "result": "improved all markers of healthy circadian function"}, {"measurement": "markers of circadian function (IS, RA, CFI, IV) of wrist skin temperature", "setting": "patients with PD; listed as ENT-01", "result": "significant positive impact; also recorded: improved all markers of healthy circadian function"}, {"measurement": "circadian parameters during wash-out period", "setting": "patients with PD; wash-out versus baseline (IS, CFI)", "result": "improvement persisted for several of these circadian parameters"}, {"measurement": "displacement of αS from membranes", "setting": "αS", "result": "can displace αS from membranes in vitro"}]}
